Laboratory results as given in patent publication US20080220103A1, “METHOD FOR TREATING/CONTROLLING/KILLING FUNGI AND BACTERIA ON LIVING ANIMALS” (priority 2005, published 2008).
In brackets after ≈: the same amount, converted by molar mass. Like-named read-outs stand apart in the source and are kept apart here.

How the values were obtained:
S. epidermidis = assay: MIC, CLSI M7-A7, Mueller-Hinton; type: cell-based; details: Staphylococcus epidermidis
Protocol: (§1) Minimum Inhibitory Concentration (MIC): Minimum inhibitory concentrations of synthetic and semisynthetic and natural products against dermatophytes were determined using a modification of the Clinical Laboratory Standards Institute (CLSI, formerly National Committee of Clinical Laboratory Standards, NCCLS) M38A standard method for dermatophytes, while MIC of these agents against Candida species were determined using the CLSI M27-A2 methodology. The method used to determine the MIC against bacteria was based on the CLSI document M7-A7.
(§2) For bacterial species, the medium used to evaluate the antibacterial activity of agents and essential oils was Mueller-Hinton (Oxoid Ltd., Basingstoke, Hampshire, England). Serial dilutions of miconazole, terbinafine, and tolnaftate were prepared in a range of 0.125-64 μg/ml and serial dilutions of tea tree oil were prepared in a range of 0.0078-4 μg/ml, while those for the rest of the essential oils were prepared in a range 0.031-16 μg/ml.

C. albicans = assay: MIC, CLSI M27-A2; type: cell-based, Candida albicans
Protocol: as §1
(§3) The remaining essential oils were prepared in a dilution range of 0.03-16 μg/ml. For Candida the MIC was read at 24 hours and defined as the lowest concentration to inhibit 50% of fungal growth as compared to the growth control (Table 4).

E. floccosum [1] = assay: MIC, modified CLSI M38A broth dilution; type: cell-based, Epidermophyton floccosum
Protocol: as §1
(§4) For dermatophytes, serial dilutions of terbinafine, tolnaftate were prepared in a range of 0.004-2 μg/ml, while for miconazole concentrations ranged between 0.015-8 μg/ml. Finally, for essential oils, the concentrations tested were between 0.03-16 μg/ml. The only exception was tea tree oil where dilutions were prepared in a range of 0.0078-4 μg/ml. The MIC was read at 4 days post inoculation and defined as the lowest concentration of an agent to inhibit 80% of fungal growth as compared to the growth control (Table 2).

All yeasts = assay: MIC, CLSI M27-A2, pooled yeasts; type: cell-based, C. albicans, C. parapsilosis; details: n = 12
Protocol: as §1, §3
(§5) In the following Tables, MIC50 and MIC90 are defined as the minimal concentrations of a compound that can inhibit 50% and 90% of the tested organisms, respectively.

All dermatophytes = assay: MIC, modified CLSI M38A, pooled dermatophytes; type: cell-based, E. floccosum, T. rubrum, T. mentagrophytes
Protocol: as §1, §4, §5

T. mentagrophytes = assay: Minimum fungicidal concentration (Canton et al.); type: cell-based, Trichophyton mentagrophytes; details: for MFC: Trichophyton mentagrophytes
Protocol: (§6) Minimum fungicidal concentration (MFC): The minimum fungicidal concentrations of various agents were determined using the technique described by Canton et al. (Antimicrob Agents Chemother. 2004 8:2477-82). In that method, fungal conidia were collected following growth on potato dextrose agar (PDA) plates and were used to inoculate 96-well plates containing different concentrations of agents. Following incubation at 35° C. for 4 days (for dermatophytes) or 24 hours (for yeast), wells showing no visible growth were cultured to determine the MFC (defined as the lowest concentration of a given agent that kills>99.999% of fungal conidia or spores). The MFC value represents the level of the agent at which spores or conidia were killed.

T. rubrum [2] = assay: MIC, modified CLSI M38A broth dilution; type: cell-based, Trichophyton rubrum
Protocol: as §1, §4

[3] = test system: All bacteria (Staphylococcus species); assay: MIC, CLSI M7-A7, pooled bacteria; type: cell-based, S. aureus, S. epidermidis; details: Staphylococcus, n = 12
Protocol: as §1, §2, §5

C. parapsilosis = assay: MIC, CLSI M27-A2; type: cell-based, Candida parapsilosis
Protocol: as §1, §3

E. floccosum [4] = assay: Minimum fungicidal concentration (Canton et al.); type: cell-based, Epidermophyton floccosum; details: for MFC: Epidermophyton floccosum
Protocol: as §6

T. rubrum [5] = assay: Minimum fungicidal concentration (Canton et al.); type: cell-based, Trichophyton rubrum; details: for MFC: Trichophyton rubrum
Protocol: as §6

[6] = Candida albicans, C. albicans, n = 6
[7] = Epidermophyton floccosum, E. floccosum, n = 6
[8] = Trichophyton rubrum, T. rubrum, n = 6
[9] = Lodderomyces parapsilosis, C. parapsilosis, n = 6

## Cc1cccc(N(C)C(=S)Oc2ccc3ccccc3c2)c1 [Tolnaftate, tolnaftate]
S. epidermidis; S. epidermidis strain 8472, read-out: MIC
  MIC: 2 mg/L (≈ 6.51 µM)
S. epidermidis; S. epidermidis strain 8473, read-out: MIC
  MIC: 16 mg/L (≈ 52 µM)
S. epidermidis; S. epidermidis strain 8474, read-out: MIC
  MIC: 2 mg/L (≈ 6.51 µM)
S. epidermidis; S. epidermidis strain 8475, read-out: MIC
  MIC: > 64 mg/L
S. epidermidis; S. epidermidis strain 8476, read-out: MIC
  MIC: > 64 mg/L
S. epidermidis; S. epidermidis strain 8477, read-out: MIC
  MIC: > 64 mg/L
S. epidermidis; S. epidermidis, two strains, read-out: MIC values
  MIC: 2 mg/L (≈ 6.51 µM)
S. epidermidis; S. epidermidis, n = 6
  MIC50: 16 mg/L (≈ 52 µM)
  MIC90: > 64 mg/L
C. albicans; C. albicans strain 8280 (multi-resistant)
  MIC: >64 mg/L
C. albicans; C. albicans, n = 6
  MIC Range: > 64 mg/L
C. albicans; Candida albicans, 24 h, C. albicans strain 1740, 50% inhibition, 24 hours, read-out: MIC
  MIC: > 64 mg/L
C. albicans; Candida albicans, C. albicans strain 2108, read-out: MIC
  MIC: 64 mg/L (≈ 208 µM)
C. albicans; Candida albicans, C. albicans strain 2153, read-out: MIC
  MIC: > 64 mg/L
C. albicans; Candida albicans, C. albicans strain 8280 (multi-resistant), read-out: MIC
  MIC: > 64 mg/L
C. albicans; Candida albicans, C. albicans strain 8283, read-out: MIC
  MIC: > 64 mg/L
C. albicans; Candida albicans, C. albicans strain 8364, read-out: MIC
  MIC: > 64 mg/L
C. albicans; [6]
  MIC50: > 64 mg/L
  MIC90: > 64 mg/L
E. floccosum [1]; E. floccosum, n = 6
  MIC Range: 0.06 to 0.125 mg/L
E. floccosum [1]; Epidermophyton floccosum, E. floccosum strain 1666
  MIC: 0.06 mg/L (≈ 0.195 µM)
E. floccosum [1]; Epidermophyton floccosum, E. floccosum strain 1798
  MIC: 0.06 mg/L (≈ 0.195 µM)
E. floccosum [1]; Epidermophyton floccosum, E. floccosum strain 1925
  MIC: 0.06 mg/L (≈ 0.195 µM)
E. floccosum [1]; Epidermophyton floccosum, E. floccosum strain 1926
  MIC: 0.125 mg/L (≈ 0.407 µM)
E. floccosum [1]; Epidermophyton floccosum, E. floccosum strain 1961
  MIC: 0.125 mg/L (≈ 0.407 µM)
E. floccosum [1]; Epidermophyton floccosum, E. floccosum strain 2165
  MIC: 0.06 mg/L (≈ 0.195 µM)
E. floccosum [1]; [7]
  MIC50: 0.06 mg/L (≈ 0.195 µM)
  MIC90: 0.125 mg/L (≈ 0.407 µM)
All yeasts
  MIC50: 16 mg/L (≈ 52 µM)
  MIC90: > 64 mg/L
All dermatophytes; n = 18
  MIC50: 0.06 mg/L (≈ 0.195 µM)
  MIC90: 0.125 mg/L (≈ 0.407 µM)
All dermatophytes; n = 18, listed as tolnaftate
  MIC Range: 0.008 to 0.125 mg/L
T. mentagrophytes; T. mentagrophytes, n = 6
  MFC range (row MIC Range): 0.5 to 1 mg/L
T. mentagrophytes; T. mentagrophytes strain 2124, read-out: MFC
  MFC: 0.5 mg/L (≈ 1.63 µM)
T. mentagrophytes; T. mentagrophytes strain 2125, read-out: MFC
  MFC: 0.5 mg/L (≈ 1.63 µM)
T. mentagrophytes; T. mentagrophytes strain 2127, read-out: MFC
  MFC: 1 mg/L (≈ 3.25 µM)
T. mentagrophytes; T. mentagrophytes strain 2128, read-out: MFC
  MFC: 1 mg/L (≈ 3.25 µM)
T. mentagrophytes; T. mentagrophytes, n = 6, read-out: MFC, row MIC50
  MFC: 0.5 mg/L (≈ 1.63 µM)
T. mentagrophytes; T. mentagrophytes, n = 6, read-out: MFC, row MIC90
  MFC: 1 mg/L (≈ 3.25 µM)
T. rubrum [2]; T. rubrum, n = 6
  MIC Range: 0.008 to 0.015 mg/L
T. rubrum [2]; Trichophyton rubrum, T. rubrum strain 1967
  MIC: 0.015 mg/L (≈ 0.0488 µM)
T. rubrum [2]; Trichophyton rubrum, T. rubrum strain 2098
  MIC: 0.015 mg/L (≈ 0.0488 µM)
T. rubrum [2]; Trichophyton rubrum, T. rubrum strain 2246
  MIC: 0.008 mg/L (≈ 0.026 µM)
T. rubrum [2]; Trichophyton rubrum, T. rubrum strain 8063
  MIC: 0.008 mg/L (≈ 0.026 µM)
T. rubrum [2]; Trichophyton rubrum, T. rubrum strain 8071
  MIC: 0.015 mg/L (≈ 0.0488 µM)
T. rubrum [2]; Trichophyton rubrum, T. rubrum strain 8092
  MIC: 0.015 mg/L (≈ 0.0488 µM)
T. rubrum [2]; [8]
  MIC50: 0.015 mg/L (≈ 0.0488 µM)
  MIC90: 0.015 mg/L (≈ 0.0488 µM)
[3]
  MIC50: > 64 mg/L
  MIC90: > 64 mg/L
C. parapsilosis; C. parapsilosis, n = 6
  MIC Range: 0.5 to 16 mg/L
C. parapsilosis; Lodderomyces parapsilosis, C. parapsilosis strain 7629
  MIC: 0.5 mg/L (≈ 1.63 µM)
C. parapsilosis; Lodderomyces parapsilosis, C. parapsilosis strain 7668
  MIC: 8 mg/L (≈ 26 µM)
C. parapsilosis; Lodderomyces parapsilosis, C. parapsilosis strain 7672
  MIC: 8 mg/L (≈ 26 µM)
C. parapsilosis; Lodderomyces parapsilosis, C. parapsilosis strain 7995
  MIC: 8 mg/L (≈ 26 µM)
C. parapsilosis; Lodderomyces parapsilosis, C. parapsilosis strain 8148
  MIC: 8 mg/L (≈ 26 µM)
C. parapsilosis; Lodderomyces parapsilosis, C. parapsilosis strain 8442
  MIC: 16 mg/L (≈ 52 µM)
C. parapsilosis; Lodderomyces parapsilosis, C. parapsilosis, the other isolates (not #7629)
  MIC: 8 to 16 mg/L (≈ 26 to 52 µM)
C. parapsilosis; [9]
  MIC50: 8 mg/L (≈ 26 µM)
  MIC90: 8 mg/L (≈ 26 µM)
E. floccosum [4]; E. floccosum, n = 6
  MFC range (row MIC Range): 0.25 to 0.5 mg/L
E. floccosum [4]; E. floccosum strain 1666, read-out: MFC
  MFC: 0.25 mg/L (≈ 0.813 µM)
E. floccosum [4]; E. floccosum strain 1798, read-out: MFC
  MFC: 0.25 mg/L (≈ 0.813 µM)
E. floccosum [4]; E. floccosum strain 1925, read-out: MFC
  MFC: 0.25 mg/L (≈ 0.813 µM)
E. floccosum [4]; E. floccosum strain 1926, read-out: MFC
  MFC: 0.5 mg/L (≈ 1.63 µM)
E. floccosum [4]; E. floccosum strain 1961, read-out: MFC
  MFC: 0.5 mg/L (≈ 1.63 µM)
E. floccosum [4]; E. floccosum strain 2165, read-out: MFC
  MFC: 0.25 mg/L (≈ 0.813 µM)
E. floccosum [4]; E. floccosum, n = 6, read-out: MFC, row MIC50
  MFC: 0.25 mg/L (≈ 0.813 µM)
E. floccosum [4]; E. floccosum, n = 6, read-out: MFC, row MIC90
  MFC: 0.5 mg/L (≈ 1.63 µM)
T. rubrum [5]; T. rubrum, n = 6
  MFC range (row MIC Range): 0.06 to 0.125 mg/L
T. rubrum [5]; T. rubrum strain 1967, read-out: MFC
  MFC: 0.06 mg/L (≈ 0.195 µM)
T. rubrum [5]; T. rubrum strain 2098, read-out: MFC
  MFC: 0.06 mg/L (≈ 0.195 µM)
T. rubrum [5]; T. rubrum strain 2246, read-out: MFC
  MFC: 0.06 mg/L (≈ 0.195 µM)
T. rubrum [5]; T. rubrum strain 8063, read-out: MFC
  MFC: 0.06 mg/L (≈ 0.195 µM)
T. rubrum [5]; T. rubrum strain 8071, read-out: MFC
  MFC: 0.06 mg/L (≈ 0.195 µM)
T. rubrum [5]; T. rubrum strain 8092, read-out: MFC
  MFC: 0.125 mg/L (≈ 0.407 µM)
T. rubrum [5]; T. rubrum, n = 6, read-out: MFC, row MIC50
  MFC: 0.06 mg/L (≈ 0.195 µM)
T. rubrum [5]; T. rubrum, n = 6, read-out: MFC, row MIC90
  MFC: 0.125 mg/L (≈ 0.407 µM)
